In BindingDB's records for patent US12180185 (Hk Inno.N, 2024):

Target: Tyrosine-protein kinase JAK1 (Homo sapiens, UniProt P23458)
Experiment: ADP-Glo Kinase assay
Protocol: An inhibitory effect of the inventive compound on JAK was identified as follows.A control material and a test material were prepared through dilution at each concentration by using DMSO. At the same time, ATP (250 uM) and JAK's substrate (JAK1, IRS-1tide 40 ng/mL) were prepared through dilution in kinase buffer (40 mM Tris-HCl pH 7.5, 20 mM MgCl2, 0.5 mg/mL BSA, 50 uM DTT).A test drug for each concentration, the substrate, the ATP and JAK enzymes were mixed in an eppendorf tube, and then subjected to reaction in an incubator at 30° C. for 40 minutes.ADP-GloFigure US12180185-20241231-P00001 reagent included in ADP-Glo™ Kinase Enzyme System (Promega, USA, V9571) was added to each eppendorf tube, and then subjected to reaction in the incubator at 30° C. for 40 minutes.A kinase detection reagent included in the ADP-Glo™ Kinase Enzyme System was inserted into the eppendorf tube, after which luminescence was measured by using Wallac Victor 2TM with an integration time set to 1 second, such that an inhibitory capacity of the test material on JAKs phosphorylation was analyzed. A concentration of the compound, at which JAK enzyme activity inhibition occurs 50% compared to the control group, was determined as IC50 (nM) of an inhibitor.

Chain of Tyrosine-protein kinase JAK1 (P23458 whole entry): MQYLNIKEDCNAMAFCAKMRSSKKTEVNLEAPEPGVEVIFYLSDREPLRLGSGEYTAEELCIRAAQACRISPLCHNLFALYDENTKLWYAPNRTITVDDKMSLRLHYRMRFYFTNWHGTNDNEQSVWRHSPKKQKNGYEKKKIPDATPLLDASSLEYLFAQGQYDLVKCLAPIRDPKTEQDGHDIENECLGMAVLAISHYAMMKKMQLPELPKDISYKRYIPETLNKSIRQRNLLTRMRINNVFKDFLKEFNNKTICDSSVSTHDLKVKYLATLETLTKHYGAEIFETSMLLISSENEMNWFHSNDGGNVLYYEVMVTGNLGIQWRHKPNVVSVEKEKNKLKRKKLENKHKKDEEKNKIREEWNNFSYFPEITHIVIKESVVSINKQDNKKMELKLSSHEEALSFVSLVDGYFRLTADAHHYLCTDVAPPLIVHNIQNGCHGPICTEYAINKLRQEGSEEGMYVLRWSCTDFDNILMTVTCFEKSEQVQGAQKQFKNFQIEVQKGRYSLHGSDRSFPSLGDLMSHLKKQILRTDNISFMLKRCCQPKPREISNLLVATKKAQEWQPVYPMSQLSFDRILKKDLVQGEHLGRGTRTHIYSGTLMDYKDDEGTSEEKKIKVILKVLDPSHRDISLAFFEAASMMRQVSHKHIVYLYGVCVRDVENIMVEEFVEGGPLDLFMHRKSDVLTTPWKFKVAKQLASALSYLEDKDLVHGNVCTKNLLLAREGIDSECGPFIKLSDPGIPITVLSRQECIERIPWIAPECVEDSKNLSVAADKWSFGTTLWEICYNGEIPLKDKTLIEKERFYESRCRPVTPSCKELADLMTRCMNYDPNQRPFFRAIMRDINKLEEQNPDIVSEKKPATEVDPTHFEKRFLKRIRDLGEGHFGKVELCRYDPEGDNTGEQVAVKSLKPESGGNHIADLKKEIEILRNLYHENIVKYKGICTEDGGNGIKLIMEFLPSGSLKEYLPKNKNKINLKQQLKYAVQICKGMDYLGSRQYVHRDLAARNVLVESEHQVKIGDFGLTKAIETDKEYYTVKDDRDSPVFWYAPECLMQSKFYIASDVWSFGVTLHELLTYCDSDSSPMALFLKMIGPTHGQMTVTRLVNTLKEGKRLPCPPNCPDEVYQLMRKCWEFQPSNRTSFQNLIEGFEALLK

IC50: > 1000 nM
Compound: CC(C)=C(C#N)C(=O)Nc1cccc2c(-c3ccnc(NC(=O)C4CC4)c3)n[nH]c12 [US12180185, Example 63]
